≈ marks a conversion by molar mass, not a printed value.

For data set [1], the system named is HMC1. Put plainly: Cytotoxicity against HMC1 cells assessed as reduction in cell viability at 1.8 to 30 uM after 24 hrs by trypan blue assay relative to control. Format: cell-based. The settings on record: human, hmc1, 24 h.
Data set [2] has as its system SH-SY5Y. Put plainly: Neuroprotective activity against 6-OHDA-induced cell death in human SH-SY5Y cells assessed as apoptotic cells at 0.5 ug/ml pretreated for 1 hr followed by 6-OHDA challenge measured after 24 hrs by propidium iodide/RNase staining based flow cytometry (reference value: 31.56 %). Format: functional.
Data set [3] concerns SH-SY5Y. Put plainly: Neuroprotective activity against 6-OHDA-induced cell death in human SH-SY5Y cells assessed as apoptotic cells at 5 ug/ml pretreated for 1 hr followed by 6-OHDA challenge measured after 24 hrs by propidium iodide/RNase staining based flow cytometry (reference value: 31.56 %). Type of data set: functional.
Data set [4] relates to Rattus norvegicus. Put plainly: Neuroprotective activity in 6-OHDA-induced lesioned Sprague-Dawley rat assessed as increase in TH-immunopositive neurons at 200 mg/kg, ig administered once daily for 15 days measured on day 42 post 6-OHDA lesion induction by immunohistochemical analysis relative to control. Format: functional.
For data set [5], the system named is DU-145. Put plainly: Anti-tumor activity against human DU145 cells xenografted in SCID mouse assessed as tumor volume at 10 mg/kg, po administered once daily for 28 days measured every seven days during compound dosing (reference value: 314 +/- 54.8 mm3). Type of data set: functional.
The subject of data set [6] is DU-145. Put plainly: Anti-tumor activity against human DU145 cells xenografted in SCID mouse assessed as tumor volume at 20 mg/kg, po administered once daily for 28 days measured every seven days during compound dosing (reference value: 314 +/- 54.8 mm3). Type of data set: functional.
Data set [7] has as its system DU-145. Put plainly: Anti-tumor activity against human DU145 cells xenografted in SCID mouse assessed as tumor volume at 30 mg/kg, po administered once daily for 28 days measured every seven days during compound dosing (reference value: 314 +/- 54.8 mm3). Type of data set: functional.
In data set [8] the test system is NCI-H460. In words: Cytotoxicity against human H460 cells assessed as reduction in cell viability at 50 uM after 72 hrs by trypan blue staining based assay relative to control. Type of data set: functional.
A short description of data set [9]: Apparent permeability of the compound. Type of data set: physicochemical. As to conditions: not told.
Data set [10] is described as follows: Tmax in Sprague-Dawley rat at 224 umol/kg, po administered via gastric gavage. Type of data set: ADME, organism-based. The settings on record: in vivo.
Data set [11] can be described thus: (§1) Oral bioavailability in Sprague-Dawley rat at 224 umol/kg administered via gastric gavage. Format: ADME, organism-based. The settings on record: Sprague-Dawley, in vivo, 224 umol/kg.
Data set [12] has as its system Rattus norvegicus. Put plainly: In vivo inhibition of P-gp in Sprague-Dawley rat assessed as increase in nimodipine AUC at 2 mg/kg, po pretreated for 30 mins followed by nimodipine addition measured after 36 hrs by HPLC method relative to nimodipine alone. Format: functional.
For data set [13], the system named is Rattus norvegicus. In words: In vivo inhibition of P-gp in Sprague-Dawley rat assessed as increase in nimodipine AUC at 8 mg/kg, po pretreated for 30 mins followed by nimodipine addition measured after 36 hrs by HPLC method relative to nimodipine alone. Format: functional.
Data set [14] deals with Cytochrome P450 3A4 (Homo sapiens, UniProt P08684). Put plainly: Inhibition of human CYP3A4 expressed in baculovirus infected insect cells using 7-benzyloxy-4-trifluoromethylcoumarin as substrate measured after 45 mins in presence of NADPH by spectrofluorometric method. Format: ADME.
Sequence of Cytochrome P450 3A4 (P08684 whole entry): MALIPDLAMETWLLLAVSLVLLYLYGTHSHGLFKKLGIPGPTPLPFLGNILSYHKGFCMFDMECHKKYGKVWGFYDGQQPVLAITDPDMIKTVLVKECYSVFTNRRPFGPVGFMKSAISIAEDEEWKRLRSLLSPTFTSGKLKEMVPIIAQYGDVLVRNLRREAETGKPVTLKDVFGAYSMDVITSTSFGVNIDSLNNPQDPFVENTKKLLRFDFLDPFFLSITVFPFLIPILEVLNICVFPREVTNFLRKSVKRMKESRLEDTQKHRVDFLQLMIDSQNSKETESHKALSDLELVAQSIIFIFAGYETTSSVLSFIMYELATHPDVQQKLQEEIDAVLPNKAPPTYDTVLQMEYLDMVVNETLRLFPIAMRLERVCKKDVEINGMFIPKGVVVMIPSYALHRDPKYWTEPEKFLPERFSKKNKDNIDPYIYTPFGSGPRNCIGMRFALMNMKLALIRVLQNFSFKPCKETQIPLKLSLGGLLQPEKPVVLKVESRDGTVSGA
Data set [15] has as its system Rattus norvegicus. In words: In vivo inhibition of P-gp in Sprague-Dawley rat assessed as increase in cyclosporine Cmax at 112 uM/kg, po administered via gastric gavage coadministered with 2.5 mg/kg cyclosporine measured after 720 to 1440 mins by monoclonal fluorescence polarization assay relative to control. Format: functional. Set-up: scale not given: the % may be the effect or the level left.

Data set [16] relates to Rattus norvegicus. Put plainly: In vivo inhibition of P-gp in Sprague-Dawley rat assessed as increase in cyclosporine AUC at 112 uM/kg, po administered via gastric gavage coadministered with 2.5 mg/kg cyclosporine measured after 720 to 1440 mins by monoclonal fluorescence polarization assay relative to control. Format: functional. More on the design: scale not given: the % may be the effect or the level left.

Data set [17] deals with Rattus norvegicus. In words: In vivo inhibition of CYP3A4 in Sprague-Dawley rat assessed as increase in cyclosporine Cmax at 112 uM/kg, po administered via gastric gavage coadministered with 2.5 mg/kg cyclosporine measured after 720 to 1440 mins by monoclonal fluorescence polarization assay relative to control. Type of data set: ADME, organism-based. Set-up: scale not given: the % may be the effect or the level left.

Data set [18] deals with Rattus norvegicus. In words: In vivo inhibition of CYP3A4 in Sprague-Dawley rat assessed as increase in cyclosporine AUC at 112 uM/kg, po administered via gastric gavage coadministered with 2.5 mg/kg cyclosporine measured after 720 to 1440 mins by monoclonal fluorescence polarization assay relative to control. Format: ADME, organism-based. More on the design: scale not given: the % may be the effect or the level left.

Data set [19] concerns Mus musculus. Put plainly: Anti-inflammatory activity in adjuvant-induced C57BL/6 mouse arthritis model assessed as reduction in ankle swelling by measuring splenic Th17 cell population expansion at 100 mg/kg, ip administered once daily for 1 week starting from 14 days post-immunization measured by flow cytometry relative to control. Format: functional. More on the design: scale not given: the % may be the effect or the level left.

Data set [20] has as its system Mus musculus. Put plainly: Antiinflammatory activity in dextran sodium sulphate-induced C57BL/6 mouse colitis model assessed as disease activity index at 100 mg/kg, ig administered once daily pretreated for 3 days followed by DSS challenge and subsequent treatment for 7 days measured 24 hrs post last dose (reference value: 5.67 +/- 1.03). Type of data set: functional.

The test system of data set [21] is Rattus norvegicus. In words: Anti-hyperplasia activity in carotid arterial balloon-injury-induced Sprague-Dawley rat neointimal hyperplasia model assessed as reduction in thickness of left carotid artery by measuring intima to media thickness ratio at 70 mg/kg administered once daily via gastric gavage from 3 days before balloon injury to 28 days after the injury measured post last dose by haematoxylin/eosin staining based assay relative to control. Type of data set: functional. Set-up: scale not given: the % may be the effect or the level left.

In data set [22] the test system is Mus musculus. Put plainly: Anti-inflammatory activity in proteolipid protein 139-151/complete freund's adjuvant-induced SJL/J mouse autoimmune encephalomyelitis model assessed as reduction in clinical score at 5 to 10 mg/kg, ip administered once daily pretreated for 1 day followed by immunization and subsequent treatment for 3 days measured up to 6 days. Format: functional.

A short description of data set [23]: Solubility of the compound in water. As to conditions: buffer. Type of data set: physicochemical.
Data set [24] concerns Rattus norvegicus. Described as §1. Format: ADME, organism-based. The settings on record: in vivo.
Data set [25] concerns Rattus norvegicus. Put plainly: In vivo inhibition of P-gp in Sprague-Dawley rat assessed as increase in cyclosporine Cmax at 112 uM/kg, po administered via gastric gavage coadministered with 2.5 mg/kg cyclosporine measured after 540 mins by monoclonal fluorescence polarization assay relative to control. Format: functional. More on the design: scale not given: the % may be the effect or the level left.

In data set [26] the test system is Rattus norvegicus. In words: In vivo inhibition of P-gp in Sprague-Dawley rat assessed as increase in cyclosporine AUC at 112 uM/kg, po administered via gastric gavage coadministered with 2.5 mg/kg cyclosporine measured after 540 mins by monoclonal fluorescence polarization assay relative to control. Format: functional. More on the design: scale not given: the % may be the effect or the level left.

The test system of data set [27] is Rattus norvegicus. In words: In vivo inhibition of CYP3A4 in Sprague-Dawley rat assessed as increase in cyclosporine Cmax at 112 uM/kg, po administered via gastric gavage coadministered with 2.5 mg/kg cyclosporine measured after 540 mins by monoclonal fluorescence polarization assay relative to control. More on the design: scale not given: the % may be the effect or the level left. As to conditions: 9 h. Type of data set: ADME, organism-based.

Data set [28] concerns Rattus norvegicus. In words: In vivo inhibition of CYP3A4 in Sprague-Dawley rat assessed as increase in cyclosporine AUC at 112 uM/kg, po administered via gastric gavage coadministered with 2.5 mg/kg cyclosporine measured after 540 mins by monoclonal fluorescence polarization assay relative to control. Set-up: scale not given: the % may be the effect or the level left. Type of data set: ADME, organism-based. As to conditions: 9 h.

Data set [29] has as its system Rattus norvegicus. Put plainly: In vivo inhibition of CYP1A2 in Sprague-Dawley rat assessed as increase in unbound phenacetin level in plasma at 450 mg/kg, iv coadministered with phenacetin by UV-HPLC method relative to phenacetin alone. Type of data set: ADME, organism-based.

Regarding `O=c1cc(-c2ccccc2)oc2cc(O)c(O)c(O)c12` [BAICALEIN], the Activity in data set [1] is 93 to 95%; in data set [2] it was 18.9%; in data set [3], 21.61%; in [4], 265.52%; in data set [5], 144.5 mm3; in data set [6], 114.2 mm3. The Activity in [7] is given as 183 mm3; in [8], 42%; in [15], 87.5%; in data set [16], 150.2%; in [17], 87.5%; in data set [18], 150.2%. For the same compound, the Papp in data set [9] came to 17 ×10⁻⁶ cm/s. Moreover, the Tmax in data set [10] is 0.167 h. The compound also gave a bioavailability in data set [11] of 0%. Further, the figures for the “fold change (FC)” value in data set [12] and in [13] were 1.4 and 1.6, respectively. Besides, the IC50 in [14] was 9.2 µM.
For `O=C(O)[C@H]1O[C@@H](Oc2cc3oc(-c4ccccc4)cc(=O)c3c(O)c2O)[C@H](O)[C@@H](O)[C@@H]1O` [BAICALIN], the Activity is recorded as 40% in data set [19]; 55% in data set [21]; 2.2 in data set [22]; 408.1% in data set [25]; 685.3% in data set [26]; 408.1% in data set [27]. Further, in data set [28], the Activity is given as 685.3%. Moreover, the Activity_index in [20] was 3.03. Besides, the solubility in data set [23] was 52 µg/mL (≈ 116 µM). Moreover, the Papp in [9] was determined as 0.037 ×10⁻⁶ cm/s. The Tmax in data set [10] is 6.6 h. Besides, the F in data set [24] came out at 62%. The “fold change (FC)” value in data set [29] was 2.

The values are drawn from ChEMBL document CHEMBL4038271, “Therapeutic potentials of baicalin and its aglycone, baicalein against inflammatory disorders” (Eur J Med Chem, 2017).
